According to patent EP4818155A1, “AZOBENZENE-[…], PROTEIN-COUPLED DRUG […], AND PHARMACEUTICAL USE THEREOF” (priority 2023, dated 2025):
pEC50: −log10 of the molar value. Square brackets hold non-standard residues; d marks the D form. Peptide text beside a SMILES is read from it. * marks the point of attachment. Dolaproine = CO[C@@H]([C@@H]1CCCN1)[C@@H](C)C(=O)O; Dil = CC[C@H](C)[C@H](NC)[C@@H](CC(=O)O)OC; X1 = C[C@@H](N*)[C@@H](O)c1ccccc1; NMeV = CN[C@H](C(=O)O)C(C)C

Assays:
MDA-MB-231 = experiment: In vitro cytotoxicity (CellTiter Glo); assay type: cell-based; conditions: Homo sapiens, hypoxic conditions (0.1% O2), HER2-, read-out: EC50 (cell proliferation inhibitory activity)
Experimental: (§1) The test procedure was shown as follows: • 1. Thawing Cell • Cryopreserved target cells was thawed by gentle agitation of the cryovial in a 37 °C water bath; • after thawing, the cryovial was removed from the water bath and decontaminated by spraying or immersing in 70% ethanol; • the cells in the cryovial were transferred into a centrifuge tube containing 9 mL of complete DMEM culture medium, followed by centrifugation at 200 g for 5 min; • the cells were resuspended with culture medium, and precipitated and seeded into a 75 cm^2 culture flask; • the cells were cultured in a Galaxy® CO2 incubator (48R, #CO48312044) under standard culture conditions of 37 °C, 20% oxygen and 5% carbon dioxide. • 2. Spreading Cell • Cells were subcultured three times per week at a ratio of 1:4 in a culture medium supplemented with 10% FBS (heat inactivated) and a 1% Penicillin-Streptomycin solution; • for cell passaging, adherent cells were first rinsed with 3 mL of trypsin/EDTA solution (3 mL). Then, 3 mL of trypsin/EDTA solution was added to the T75 culture flask, and the flask was gently rotated to ensure uniform coverage of the cell. The cells were incubated at 37 °C until complete cell detachment was achieved. Cell detachment was verified under a microscope, then an equal volume of the cell culture medium was added to inactivate the trypsin, and the separated cells were collected, centrifuged at 200 g for 5 minutes, and then re-suspended in a fresh culture medium. • 3. Inoculating cell • The cells were collected and counted; • 100 µ L of a cell suspension with adjusted density were inoculated to a 96-well cell culture plate, and the final cell density was about from 5000 cells/well to 10000 cells/well; • The culture plate was covered and incubated in a 5% CO2 incubator with 20% oxygen at 37 °C for 24 h. • 4. […] Co-incubation of cells with test compounds The culture medium in the 96 wells plate inoculated with cells was discarded, 150 µL of fresh culture medium was added to each well, and then 50 µL of the prepared test compounds were added to the 96-well plate. After the cells were co-incubated with the compounds in an incubator under conditions of 37 °C, 5% CO2, and 0.1% O2 for 24 h. After incubation, the drug-containing medium was removed, and the cells were rinsed with a fresh culture medium. Then the cells were placed in an incubator at 37 °C, 5% CO2, and 20% O2 and continuously cultured for an additional 72 h or 120 h. • 6. Reading plate • The plate was taken out of the incubator and equilibrated for 15 minutes at room temperature; • prior to the experiment, the CellTiter Glo reagent was incubated at 37 °C; • The detection solution was prepared by diluting CellTiter-Glo reagent with PBS at a volume ratio of 3:7, and the diluted solution was added into the wells to be tested; • the plate was then shaken at room temperature for 8 min, and allowed to stand for 2 min, and then signals were detected using an EnSpire reader. • 7.

SKBR3 = experiment: In vitro cytotoxicity (CellTiter Glo); assay type: cell-based; conditions: Homo sapiens, SK-BR-3, read-out: EC50 (cell proliferation inhibitory activity)
Experimental: as §1

BT-474 = experiment: In vitro cytotoxicity (CellTiter Glo); assay type: cell-based; conditions: Homo sapiens, BT-474, read-out: EC50 (cell proliferation inhibitory activity)
Experimental: as §1

MCF-7 = experiment: In vitro cytotoxicity (CellTiter Glo); assay type: cell-based; conditions: Homo sapiens, MCF7; hypoxic conditions (0.1% O2), HER2-; read-out: EC50 (cell proliferation inhibitory activity)
Experimental: as §1

NCI-N87 = experiment: In vitro cytotoxicity (CellTiter Glo); assay type: cell-based; conditions: Homo sapiens, hypoxic conditions (0.1% O2), HER2+, read-out: EC50 (cell proliferation inhibitory activity)
Experimental: as §1

[1] = Distribution and metabolism in blood, tissues and tumour; assay type: in vivo, mice; conditions: for area under the drug-time curve as share of that in tumors: after compound III-2 25 mg/kg
Experimental: The present example evaluated distribution and metabolism of compound III-2. SKOV3 ovarian cancer tumor-bearing mice were randomly divided into 6 groups. After tail vein injection with a single dose of compound III-2 (25 mg/kg), the mice were euthanized at the predetermined time points of 6 h, 24h, 72 h, 96 h, 168 h, 192 h in order, and blood, heart, liver, spleen, lung, and tumor samples were collected. The blood and tissue samples were stored at -80 °C for further analysis. […] At 96 h after the administration, Cys-II-2 was hardly detected in heart, liver, spleen, and lung. The peak concentration and area under the curve of the cytotoxin MMAE in the tumor were 293 times and 941 times those in peripheral blood, respectively, further proving that the excellent targeting capability of compound III-2. The area under the drug-time curve of MMAE in heart, liver, spleen and lung were 11%, 47%, 5% and 7% of area under the drug-time curve in tumors, respectively. […] Table 5 Concentration of Cys-II-2 in each group

[2] = system: Staphylococcus aureus USA300; experiment: Antibacterial activity against free bacteria (OD600nm); assay type: cell-based; conditions: free USA300, 37 °C, 16 h to 18h
Experimental: The present example evaluated the antibacterial efficacy of compound III-16 against free Staphylococcus aureus. 5 µL to 10 µL of a Staphylococcus aureus USA300 stock suspension stored at - 80 °C was taken and streaked on Brain Heart Infusion solid culture plates and incubated overnight at 37 °C in a biochemical incubator. A single USA300 colony was picked from the solid culture plates, inoculated into an appropriate volume of Brain Heart Infusion medium, and activated for 16 h to 18 h in a bacteria shaking incubator, then the bacterial suspension was centrifuged for 5 min at a rotating speed of 4000 rpm to collect the bacteria. The bacteria were resuspended in 1×PBS and the bacterial density was diluted to about […]. The diluted bacterial suspension was added to 96-well plates at 100 µL per well. Serially diluted compound III-16 and rifalogue were added to the bacterial suspension in the 96-well plates, and the bacteria was cultured in a biochemical incubator at 37 °C for 16 h to 18h, then the OD600nm was detected using a microplate reader. […] Without being limited by theories, it is speculated that the activity of compound III-16 against free bacteria may be stemed from the cleavage of the linker in compound III-16 by azoreductase extracellularly secreted by the bacteria, which releases rifalogue to exert antibacterial effect.

[3] = after compound III-2 25 mg/kg single tail vein injection

`CC[C@H](C)[C@@H]([C@@H](CC(=O)N1CCC[C@H]1[C@H](OC)[C@@H](C)C(=O)N[C@H](C)[C@@H](O)c1ccccc1)OC)N(C)C(=O)[C@@H](NC(=O)[C@@H](NC)C(C)C)C(C)C` [MMAE] (H-[NMeV]V[Dil][Dolaproine]-X1) gave a pEC50 (MDA-MB-231) of 9.24, a pEC50 (SKBR3) of 10.24 and a pEC50 (BT-474) of 10.49. For the same compound, the pEC50 (MCF-7) was 10.82, the pEC50 (NCI-N87) was 9.62 and the “Concentration of MMAE” value ([1]; Blood, 6 h, after compound III-2 25 mg/kg single tail vein injection) was 1.54 ng/g or ng/mL. For the same compound, the “Concentration of MMAE” value ([1]; Blood, 24 h, after compound III-2 25 mg/kg single tail vein injection) was 0.51 ng/g or ng/mL, the “Concentration of MMAE” value ([1]; Blood, 72 h, after compound III-2 25 mg/kg single tail vein injection) was 0.23 ng/g or ng/mL and the “Concentration of MMAE” value ([1]; Blood, 96 h, after compound III-2 25 mg/kg single tail vein injection) was 0.12 ng/g or ng/mL. For the same compound, the “Concentration of MMAE” value ([1]; Blood, 168 h, after compound III-2 25 mg/kg single tail vein injection) was 0.10 ng/g or ng/mL, the “Concentration of MMAE” value ([1]; Blood, 192 h, after compound III-2 25 mg/kg single tail vein injection) was “BQL” and the “Concentration of MMAE” value ([1]; Heart, 6 h, after compound III-2 25 mg/kg single tail vein injection) was 112.72 ng/g or ng/mL. For the same compound, the “Concentration of MMAE” value ([1]; Heart, 24 h, after compound III-2 25 mg/kg single tail vein injection) was 71.97 ng/g or ng/mL, the “Concentration of MMAE” value ([1]; Heart, 72 h, after compound III-2 25 mg/kg single tail vein injection) was 32.46 ng/g or ng/mL and the “Concentration of MMAE” value ([1]; Heart, 96 h, after compound III-2 25 mg/kg single tail vein injection) was 17.99 ng/g or ng/mL. For the same compound, the “Concentration of MMAE” value ([1]; Heart, 168 h, after compound III-2 25 mg/kg single tail vein injection) was 2.70 ng/g or ng/mL, the “Concentration of MMAE” value ([1]; Heart, 192 h, after compound III-2 25 mg/kg single tail vein injection) was 0.80 ng/g or ng/mL and the “Concentration of MMAE” value ([1]; Liver, 6 h, after compound III-2 25 mg/kg single tail vein injection) was 348.31 ng/g or ng/mL. The “Concentration of MMAE” value ([1]; Liver, 24 h, after compound III-2 25 mg/kg single tail vein injection) was 269.21 ng/g or ng/mL, the “Concentration of MMAE” value ([1]; Liver, 72 h, after compound III-2 25 mg/kg single tail vein injection) was 115.44 ng/g or ng/mL and the “Concentration of MMAE” value ([1]; Liver, 96 h, after compound III-2 25 mg/kg single tail vein injection) was 101.72 ng/g or ng/mL. The “Concentration of MMAE” value ([1]; Liver, 168 h, after compound III-2 25 mg/kg single tail vein injection) was 26.86 ng/g or ng/mL, the “Concentration of MMAE” value ([1]; Liver, 192 h, after compound III-2 25 mg/kg single tail vein injection) was 10.07 ng/g or ng/mL and the “Concentration of MMAE” value ([1]; Lung, 6 h, after compound III-2 25 mg/kg single tail vein injection) was 22.96 ng/g or ng/mL. For the same compound, the “Concentration of MMAE” value ([1]; Lung, 24 h, after compound III-2 25 mg/kg single tail vein injection) was 12.85 ng/g or ng/mL, the “Concentration of MMAE” value ([1]; Lung, 72 h, after compound III-2 25 mg/kg single tail vein injection) was 19.79 ng/g or ng/mL and the “Concentration of MMAE” value ([1]; Lung, 96 h, after compound III-2 25 mg/kg single tail vein injection) was 43.95 ng/g or ng/mL. The “Concentration of MMAE” value ([1]; Lung, 168 h, after compound III-2 25 mg/kg single tail vein injection) was 1.93 ng/g or ng/mL, the “Concentration of MMAE” value ([1]; Lung, 192 h, after compound III-2 25 mg/kg single tail vein injection) was 1.04 ng/g or ng/mL and the “Concentration of MMAE” value ([1]; Spleen, 6 h, after compound III-2 25 mg/kg single tail vein injection) was 21.29 ng/g or ng/mL. The “Concentration of MMAE” value ([1]; Spleen, 24 h, after compound III-2 25 mg/kg single tail vein injection) was 19.80 ng/g or ng/mL, the “Concentration of MMAE” value ([1]; Spleen, 72 h, after compound III-2 25 mg/kg single tail vein injection) was 20.24 ng/g or ng/mL and the “Concentration of MMAE” value ([1]; Spleen, 96 h, after compound III-2 25 mg/kg single tail vein injection) was 13.60 ng/g or ng/mL. The “Concentration of MMAE” value ([1]; Spleen, 168 h, after compound III-2 25 mg/kg single tail vein injection) was 3.82 ng/g or ng/mL, the “Concentration of MMAE” value ([1]; Spleen, 192 h, after compound III-2 25 mg/kg single tail vein injection) was 1.40 ng/g or ng/mL and the “Concentration of MMAE” value ([1]; Tumour, 6 h, after compound III-2 25 mg/kg single tail vein injection) was 54.24 ng/g or ng/mL. The “Concentration of MMAE” value ([1]; Tumour, 24 h, after compound III-2 25 mg/kg single tail vein injection) was 179.62 ng/g or ng/mL, the “Concentration of MMAE” value ([1]; Tumour, 72 h, after compound III-2 25 mg/kg single tail vein injection) was 292.45 ng/g or ng/mL and the “Concentration of MMAE” value ([1]; Tumour, 96 h, after compound III-2 25 mg/kg single tail vein injection) was 451.68 ng/g or ng/mL. The “Concentration of MMAE” value ([1]; Tumour, 168 h, after compound III-2 25 mg/kg single tail vein injection) was 198.90 ng/g or ng/mL, the “Concentration of MMAE” value ([1]; Tumour, 192 h, after compound III-2 25 mg/kg single tail vein injection) was 125.44 ng/g or ng/mL and the “area under the curve in the tumor relative to peripheral blood” value [1, 3] was 941 times. The “peak concentration in the tumor relative to peripheral blood” value [1, 3] was 293 times, the “area under the drug-time curve as share of that in tumors” value (from here on “area under the drug-time curve as share”) ([1]; heart) was 11% and the “area under the drug-time curve as share” value ([1]; liver) was 47%. For the same compound, the “area under the drug-time curve as share” value ([1]; lung) was 7% and the “area under the drug-time curve as share” value ([1]; spleen) was 5%.
For `CO[C@H]1C=CO[C@@]2(C)Oc3c(C)c(O)c4c(=O)c(c5oc6cc(N7CCC(N(C)C)CC7)cc(=O)c6nc5c4c3=C2O)NC(=O)/C(C)=C\C=C/[C@H](C)[C@H](O)[C@@H](C)[C@@H](O)[C@@H](C)[C@H](OC(C)=O)[C@@H]1C` [rifalogue], the MIC90 [2] was “about 1.4 nM”.
